Data set [1] relates to S6K1 (Thr389) phosphorylation (mTORC1 activity) in wild-type (WT) 293T cells. Briefly: Inhibition of S6K1 (Thr389) phosphorylation in wild-type 293T cells (ELISA). Type of data set: cell-based, human. As to conditions: for extent of inhibition of S6K1 (Thr389) phosphorylation: with increasing concentrations. Put shortly:
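WT 293T cells in DMEM + 10% FBS, grown 24 h to ~80% confluence, then treated 2 h at 37 °C in duplicate with compounds over an 8–11-point range from 0.001 pM to 10 μM. DMSO vehicle served as negative control. Phospho-S6K1 (Thr389) measured by ELISA.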
(ELISA stands for enzyme-linked immunosorbent assay.)

Data set [2] is described as follows: In vitro microsomal metabolic stability, CD-1 mouse liver microsomes. Type of data set: in vitro ADME. As to conditions: for CLint scaled at 1 µM / microsomal CLint at 1 µM: CD-1, mouse, mouse liver microsomes, pH 7.2; for half-life at 1 µM: CD-1, pH 7.2, 0.5 mg/ml protein, NADPH; for half-life at 1 µM / Remaining (T = 60 min) / Remaining (T = NCF60 min): Mouse liver microsomes; for Remaining (T = 60 min): with NADPH; for Remaining (T = NCF60 min): without NADPH regenerating system; for Remaining (T = 60 min) / Remaining (T = NCF60 min): 60 min. In short, it runs like this: (§1)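 Compounds at 1 μM incubated at 37° C with pooled CD-1 mouse or human liver microsomes (0.5 mg/mL protein) plus NADPH regenerating system in 50 mM potassium phosphate, pH 7.2, 3.3 mM MgCl2; sampled at 0–60 min, 60-min no-NADPH control. Parent loss by LC/MS/MS analyte/IS peak-area ratio, n=1.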
(Liver microsomes are a subcellular fraction often used to study metabolism.)

Data set [3] can be described thus: In vitro microsomal metabolic stability, human liver microsomes. Type of data set: in vitro ADME. As to conditions: for Remaining (T = 60 min) / Remaining (T = NCF60 min) / half-life at 1 µM: Human liver microsomes; for Remaining (T = 60 min): with NADPH; for Remaining (T = NCF60 min): without NADPH regenerating system; for Remaining (T = 60 min) / Remaining (T = NCF60 min): 60 min; for CLint scaled at 1 µM / microsomal CLint at 1 µM: human, human liver microsomes; for CLint scaled at 1 µM / microsomal CLint at 1 µM / half-life at 1 µM: pH 7.2; for half-life at 1 µM: 0.5 mg/ml protein, NADPH. Put shortly: as §1

Data set [4] in a line: Pharmacokinetic studies in male CD-1 mice (plasma, IV and PO). Type of data set: in vivo, mouse. As to conditions: for clearance / Vd / bioavailability / half-life / Cmax / concentration at 8 h / concentration at 24 h: male; for clearance / Vd / bioavailability: CD-1, plasma, mouse; for clearance / Vd / half-life: IV 2 mg/kg; for clearance: read-out: CI(mL/min/kg), compounds clearance following IV administration; for Vd: read-out: Vdss (L/kg), volume of distribution following IV administration; for bioavailability: PO 10 mg/kg vs IV 2 mg/kg; for half-life / Cmax / concentration at 8 h / concentration at 24 h: CD-1; for half-life / Cmax / concentration at 8 h / concentration at 24 h / IV plasma half-life (T1/2): mouse plasma; for half-life: read-out: IV T1/2 (converted); for Cmax / concentration at 8 h / concentration at 24 h: PO 10 mg/kg; for concentration at 8 h: read-out: Compound concentration at 8-hour, PO administration; for concentration at 24 h: read-out: Compound concentration at 24-hour, PO administration. On the procedure:
Animal experiments were carried out at Wuxi AppTec. Male 6-8 weeks old CDI mice were obtained from Hilltop Labs. Following arrival at Wuxi AppTec, mice were housed in animal rooms with environmental control (temperature: 20 to 26° C.; lighting: 12 hour light/dark cycle). Mice were fed with certified pellet diet (Certified Rodent Diet #5002 by LabDiet). Water was provided to the animals ad libitum. Mice were acclimated to the facility for at least 3 days prior to starting experiments.
Appropriate amount of test article formulated in 5% ethanol, 5% Tween-80 and 5% PEG-400, 85% water. Formulation was prepared on the day of dosing and dosed within 2 hours following preparation of formulations. Dose accuracy was determined by LC-MS/MS.
Dose formulation(s) were administered following facility SOPs. Dose volumes were determined individually prior to dosing based on animals' body weights.
About 40 μL of blood samples were collected via peripheral veins (e.g. saphenous veins) at each pre-defined time point. Blood samples were collected into tubes containing K2EDTA as anti-coagulant and kept on ice until centrifugation.
Blood samples were centrifuged at 4° C., 3000 g for 5 min within half an hour of collection. Plasma was transferred into polypropylene tubes or 96-well plates, promptly frozen on dry ice and stored at −70±10° C. until analysis by LC-MS/MS.
Test compound concentration in mouse plasma was determined with LC-MS/MS method using a calibration curve with at least 6 non-zero calibration standards.
The pharmacokinetics (PK) of the test article was analyzed using Phoenix WinNonlin software (version 8.3) and non-compartmental analysis model. Derived PK parameters include, but not limited to, C0, CLp, Vdss, Cmax, Tmax, T1/2, AUC(0-t), AUC(0-inf), MRT(0-t), MRT(0-inf) and % F (bioavailability).

The values below come from US20240360153A1 (Regeneron Pharmaceuticals, Inc., priority 2023, published 2024).

Entries after “also recorded” stand apart in the source; their conditions may differ.

As a reminder, the CLint scaled is a measure of how fast metabolising enzymes remove a compound, apart from limits set by blood flow. Higher therefore signals rapid turnover. In general, microsomal CLint refers to a measure of how fast metabolising enzymes remove a compound, apart from limits set by blood flow. A low value points to greater metabolic stability. As usually defined, the bioavailability is dose-corrected exposure relative to a reference, in per cent. A lower bioavailability goes with little systemic uptake. What is called Cmax is the maximum level reached in the sampled fluid or tissue. Broadly, the IC50 is the concentration needed to halve the response being measured. High values mean weaker potency, low ones greater potency.

Consider `CO[C@H]1C[C@@H]2CC[C@@H](C)[C@@](O)(O2)C(=O)C(=O)N2CCCC[C@H]2C(=O)O[C@H]([C@H](C)C[C@@H]2CC[C@@H](OCCO)[C@H](OC)C2)CC(=O)[C@H](C)/C=C(\C)[C@@H](O)[C@@H](OC)C(=O)[C@H](C)C[C@H](C)/C=C/C=C/C=C/1C` [RAD001, everolimus, reference compound], for which, in data set [1] (wild-type cells), the “extent of inhibition of S6K1 (Thr389) phosphorylation” value is reported as “completely inhibit; also recorded: near complete inhibition”. In data set [2], the intrinsic metabolic clearance (CLint scaled) at 1 µM came to 76.9 mL/min/kg, the intrinsic clearance (microsomal CLint) at 1 µM was determined as 19.4 µL/min/mg, the half-life at 1 µM came to 1.19 h and the “Remaining (T = 60 min)” value came out at 56%. In addition, the “Remaining (T = NCF60 min)” value in data set [2] is 126%. Besides, in data set [3], the “Remaining (T = 60 min)” value came out at 2.10%, the “Remaining (T = NCF60 min)” value was determined as 120%, the CLint scaled at 1 µM came to 112 mL/min/kg and the microsomal CLint at 1 µM is 124 µL/min/mg. For the same molecule, the half-life at 1 µM in data set [3] stood at 0.185 h. Moreover, in data set [4], the clearance came to 0.934 mL/min/kg, the Vd is 0.433 L/kg, the bioavailability is 26% and the half-life is 5.85 h. Besides, in data set [4], the concentration peaked (Cmax) at 7220 ng/mL, the concentration at 8 h came out at 1960 ng/mL, the concentration at 24 h worked out at 273 ng/mL and the “IV plasma half-life (T1/2)” value is 5.85 h.

`COCCN(c1ccccc1)C1C[C@@H]2CC[C@@H](C)[C@@](O)(O2)C(=O)C(=O)N2CCCC[C@H]2C(=O)OC([C@H](C)CC2CC[C@@H](O)C(OC)C2)CC[C@H](C)/C=C(\C)C(O)C(OC)C(=O)[C@H](C)C[C@H](C)/C=C/C=C/C=C/1C` (stereo partly drawn) [Compound 69, (3S,6S,7E,9R,10R,12R,14S,15E,17E,19E,23S,26R,27R,34aS)-9,27-dihydroxy-3-((R)-1-((1S,3R,4R)-4-hydroxy-3-methoxycyclohexyl)propan-2-yl)-10-methoxy-21-((2-methoxyethyl)(phenyl)amino)-6,8,12,14,20,26-hexamethyl-5,6,9,10,12,13,14,21,22,23,24,25,26,27,32,33,34,34a-octadecahydro-3H-23,27-epoxypyrido[2,1-c][1]oxa[4]azacyclohentriacontine-1,11,28,29(4H,31H)-tetraone] registered an IC50 in data set [1] (Homo sapiens, HEK-293T, 2 h, wild-type 293T cells, 2 hours treatment) of 1.53 nM. In data set [1] (wild-type cells), the “fold lower potency compared with RAD001 (by IC50)” value is 4 fold and the “extent of inhibition of S6K1 (Thr389) phosphorylation” value is given as “near complete inhibition”. Further, in data set [2], the CLint scaled at 1 µM was 11.1 mL/min/kg, the microsomal CLint at 1 µM came out at 2.81 µL/min/mg, the half-life at 1 µM was 8.2 h and the “Remaining (T = 60 min)” value was found to be 113%. Moreover, the “Remaining (T = NCF60 min)” value in data set [2] came out at 99.6%. In addition, in data set [3], the “Remaining (T = 60 min)” value came out at 63.3%, the “Remaining (T = NCF60 min)” value was determined as 115%, the CLint scaled at 1 µM was determined as 25.5 mL/min/kg and the intrinsic metabolic clearance (microsomal CLint) at 1 µM came to 28.3 µL/min/mg. The half-life at 1 µM in data set [3] amounted to 0.817 h. Besides, in data set [4], the clearance turned out to be 0.176 mL/min/kg, the Vd amounted to 0.228 L/kg, the bioavailability stood at 30.7% and the half-life was 15.5 h. In data set [4], the Cmax turned out to be 12900 ng/mL, the concentration at 8 h stood at 10000 ng/mL, the concentration at 24 h worked out at 4670 ng/mL and the “IV plasma half-life (T1/2)” value was 15.5 h.
